These results are taken from US10711006B2, “Selective Bruton's tyrosine kinase inhibitor and use thereof” (HANGZHOU HERTZ PHARMACEUTICAL CO., LTD., priority 2016, dated 2020).

The target in one assay is BTK Kinase (Homo sapiens (Human), UniProt Q06187). Put plainly: In-vitro Btk kinase inhibitory activity assay. The format is biochemical.
Another assay has as its target ITK (Homo sapiens (Human), UniProt Q08881). Put plainly: Kinase selectivity experiment, ITK. The format is biochemical. The settings on record: read-out: Inhibitory activity against ITK (IC50). The procedure: (§1) A 1× kinase base buffer and a reaction stop buffer for respective kinases in the experiment were prepared as required.
(§2) Preparation of Compounds to be Tested:
(§3) 2) diluting each compound at a 5-fold concentration gradient in a 96-well plate to 6 to 7 concentrations and ensuring that the drug volume in each well was 10 μl; and at the same time adding 100 μl of DMSO to prepare a blank control group and also preparing a negative control group without the enzyme substrate; and
(§4) 3) preparing another 96-well plate, adding 10 μl of each of the above compounds to 90 μl of the 1× kinase base buffer and mixing for 10 minutes to be uniform.
(§5) Preparation of the Plate to be Tested:
(§6) 1) 5 μl of the mixed solution prepared as above in the 96-well plate was taken and transferred to a 384-well plate, with two replicate wells for each compound.
(§7) 1) Preparing a 2.5× kinase solution and adding a corresponding 1× kinase base buffer;
(§8) 2) preparing a 2.5× polypeptide solution and adding FAM-labeled polypeptide and ATP in the 1× kinase base buffer; and
(§9) 3) adding 10 μl of 2.5× kinase solution to a 384-well plate to be tested, placing in a room-temperature environment for 10 minutes, and then adding 10 μl of the 2.5× polypeptide solution, reacting at 28° C. for 1 hour, and then adding 25 μl of a reaction stop buffer.
(§10) The Caliper program reads the plate and uses the data to obtain the IC50 values of the corresponding compounds against kinases.

In a further assay the target is BLK (Homo sapiens (Human), UniProt P51451). Nature of the assay: Kinase selectivity experiment, BLK. Format: biochemical. Particulars: read-out: Inhibitory activity against BLK (IC50). How it is done:
as §1, §2, §3, §4, §5, §6, §7, §8, §9, §10

For another assay, the target named is CSK (Homo sapiens (Human), UniProt P41240). Nature of the assay: Kinase selectivity experiment, CSK. Format: biochemical. Particulars: read-out: Inhibitory activity against CSK (IC50). How it is done: as §1, §2, §3, §4, §5, §6, §7, §8, §9, §10
Sequence of CSK (P41240 whole entry, species assumed): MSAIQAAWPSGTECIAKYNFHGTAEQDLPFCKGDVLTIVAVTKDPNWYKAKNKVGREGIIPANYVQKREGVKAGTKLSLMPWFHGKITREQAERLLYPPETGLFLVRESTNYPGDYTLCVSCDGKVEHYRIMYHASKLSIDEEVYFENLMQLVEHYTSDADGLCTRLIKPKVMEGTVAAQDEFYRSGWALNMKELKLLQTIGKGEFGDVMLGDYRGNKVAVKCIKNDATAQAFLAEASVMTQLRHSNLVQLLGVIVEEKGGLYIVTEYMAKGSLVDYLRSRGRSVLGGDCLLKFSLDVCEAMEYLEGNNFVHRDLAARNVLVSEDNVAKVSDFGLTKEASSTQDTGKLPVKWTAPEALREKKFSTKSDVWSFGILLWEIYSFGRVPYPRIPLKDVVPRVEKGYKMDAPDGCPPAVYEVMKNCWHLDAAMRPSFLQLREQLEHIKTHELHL
The next assay addresses JAK3 (Homo sapiens (Human), UniProt P52333). Nature of the assay: Kinase selectivity experiment, JAK3. Format: biochemical. The settings on record: read-out: Inhibitory activity against JAK3 (IC50). How it is done: as §1, §2, §3, §4, §5, §6, §7, §8, §9, §10
A further assay has as its target FLT3 (Homo sapiens (Human), UniProt P36888). Nature of the assay: Kinase selectivity experiment, FLT3. The format is biochemical. Particulars: read-out: Inhibitory activity against FLT3 (IC50). The procedure:
as §1, §2, §3, §4, §5, §6, §7, §8, §9, §10

Assay [1] relates to Mino subcutaneous xenograft tumor. Put plainly: In-vivo pharmacodynamic study on Mino subcutaneous xenograft tumor models. Particulars: CB17 SCID mice, intragastric, twice a day. The procedure: In CB17 SCID mice, 0.2 mL of cell suspension containing 5×10^6 Mino cells was subcutaneously inoculated into the right back of each mouse, and when the mean tumor volume reaches approximately 139.94 mm3 (day 26 after inoculation), group administration was started (intragastric administration, twice a day, 14 days in total). Animals were monitored daily for health and mortality, and tumor diameters were measured twice a week using vernier calipers to see if tumor growth could be inhibited, delayed, or cured.

The test system of assay [2] is arthritis induced by anti-collagen antibodies and lipopolysaccharides. Put plainly: Rheumatoid arthritis model induced by anti-collagen antibodies and lipopolysaccharides. Format: in vivo, Balb/c mice. The settings on record: for level of IL-1β in serum (in words): 10 mg/kg orally once a day; for level of IL-1β in serum (in words) / inflammatory cell infiltration, synovial hyperplasia, inflammatory granulation tissue formation, necrotic tissue: versus model group; for IL-1β: serum on Day 13, 10 mg/kg orally once a day Day 2 to Day 12; for inflammatory cell infiltration, synovial hyperplasia, inflammatory granulation tissue formation, necrotic tissue: tissue samples after treatment. How it is done:
In Balb/c mice, arthritis was induced by administration of anti-collagen antibodies and lipopolysaccharides (Nandakumar et al., Am. J. Pathol. 2003, 163: 1827-1837).
The specific method was as follows: On Day 0, female Balb/c mice were intravenously injected with anti-type II collagen ChemicomAb mixture in a dose of 100 mg/kg, and on Day 1, lipopolysaccharide was intraperitoneally injected in a dose of 1.25 mg/kg. From Day 2 to Day 12, Compounds 15a, 17a, 24a and 24e were orally administered once a day in a dose of 10 mg/kg. On Day 13 after abdominal anesthesia, […] of blood was taken from the femoral artery and centrifuged at 3000 r/min for 20 minutes, serum was taken to detect IL-1β with a test kit, and related tissue samples were observed.

For assay [3], the system named is human lung cancer cell (A549). Put plainly: In-vitro tumor cell proliferation inhibition (CCK-8), A549. The settings on record: A549, 72 h, read-out: Tumor cell proliferation inhibitory activity (IC50, μM) A549.
In assay [4] the test system is human diffuse large B lymphoma (TMD-8). Nature of the assay: In-vitro tumor cell proliferation inhibition (CCK-8), TMD-8. Particulars: TMD8, 72 h, read-out: Tumor cell proliferation inhibitory activity (IC50, nM) TMD-8.
Method: The in-vitro antitumor activity assay was carried out on the synthesized compound by using different solid tumors and leukemia cell lines:
Cell lines: human lung cancer cell (A549), human mantle cell lymphoma (MINO), diffuse giant B-cell lymphoma (OCI-LY10), and human diffuse large B lymphoma (TMD-8).
Preparation method of the drug: the drug was dissolved in DMSO to make a 10 mM stock solution, and then the stock solution was diluted in a certain ratio to obtain 5 different concentrations (test concentration 100×). In-vitro culture of tumor cells:
The tumor cells A549, MINO, OCI-LY10, and TMD-8 were seeded in a 96-well plate at 4000 cells/200 μL/well and then incubated overnight at 37° C. in a 5% CO2 cell culture incubator. 2 μL of the compound was added to each well to final concentrations of 50 μM, 10 μM, 2 μM, 0.4 μM, and 0.08 μM and then incubated for 72 hours at 37° C. in a 5% CO2 cell incubator, with DMSO (2%) as a control group. […] Wells loaded with the corresponding amount of cell culture fluid the and CCK-8 solution but no cells were considered as blank controls. The absorbance (OD value) was measured at 450 nm using a microplate reader, and the obtained data was used to calculate IC50.
The subject of assay [5] is diffuse giant B-cell lymphoma (OCI-LY10). Put plainly: In-vitro tumor cell proliferation inhibition (CCK-8), OCI-LY10. Particulars: Homo sapiens, OCI-Ly10, 72 h, read-out: Tumor cell proliferation inhibitory activity (IC50, nM) OCI-LY10.

Where only a bound is given, the exact number is not on record here.

Sequence of ITK (Q08881 whole entry, species assumed): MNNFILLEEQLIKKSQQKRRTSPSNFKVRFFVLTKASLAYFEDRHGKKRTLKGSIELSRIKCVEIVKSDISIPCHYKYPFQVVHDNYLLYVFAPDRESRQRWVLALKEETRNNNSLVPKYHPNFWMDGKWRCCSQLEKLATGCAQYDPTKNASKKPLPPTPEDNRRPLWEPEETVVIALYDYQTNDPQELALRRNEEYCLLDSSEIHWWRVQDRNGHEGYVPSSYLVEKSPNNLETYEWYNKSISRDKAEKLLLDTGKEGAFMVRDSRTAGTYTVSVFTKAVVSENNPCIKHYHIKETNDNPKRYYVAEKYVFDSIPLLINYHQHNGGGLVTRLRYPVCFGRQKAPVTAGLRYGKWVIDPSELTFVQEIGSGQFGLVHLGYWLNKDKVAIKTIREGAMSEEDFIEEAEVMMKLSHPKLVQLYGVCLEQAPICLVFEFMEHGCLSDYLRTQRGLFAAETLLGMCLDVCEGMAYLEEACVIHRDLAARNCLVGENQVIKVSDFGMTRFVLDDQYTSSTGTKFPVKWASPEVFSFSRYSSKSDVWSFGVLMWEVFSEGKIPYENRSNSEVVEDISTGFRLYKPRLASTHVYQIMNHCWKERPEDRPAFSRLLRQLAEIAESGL
Sequence of FLT3 (P36888 27-993, species assumed): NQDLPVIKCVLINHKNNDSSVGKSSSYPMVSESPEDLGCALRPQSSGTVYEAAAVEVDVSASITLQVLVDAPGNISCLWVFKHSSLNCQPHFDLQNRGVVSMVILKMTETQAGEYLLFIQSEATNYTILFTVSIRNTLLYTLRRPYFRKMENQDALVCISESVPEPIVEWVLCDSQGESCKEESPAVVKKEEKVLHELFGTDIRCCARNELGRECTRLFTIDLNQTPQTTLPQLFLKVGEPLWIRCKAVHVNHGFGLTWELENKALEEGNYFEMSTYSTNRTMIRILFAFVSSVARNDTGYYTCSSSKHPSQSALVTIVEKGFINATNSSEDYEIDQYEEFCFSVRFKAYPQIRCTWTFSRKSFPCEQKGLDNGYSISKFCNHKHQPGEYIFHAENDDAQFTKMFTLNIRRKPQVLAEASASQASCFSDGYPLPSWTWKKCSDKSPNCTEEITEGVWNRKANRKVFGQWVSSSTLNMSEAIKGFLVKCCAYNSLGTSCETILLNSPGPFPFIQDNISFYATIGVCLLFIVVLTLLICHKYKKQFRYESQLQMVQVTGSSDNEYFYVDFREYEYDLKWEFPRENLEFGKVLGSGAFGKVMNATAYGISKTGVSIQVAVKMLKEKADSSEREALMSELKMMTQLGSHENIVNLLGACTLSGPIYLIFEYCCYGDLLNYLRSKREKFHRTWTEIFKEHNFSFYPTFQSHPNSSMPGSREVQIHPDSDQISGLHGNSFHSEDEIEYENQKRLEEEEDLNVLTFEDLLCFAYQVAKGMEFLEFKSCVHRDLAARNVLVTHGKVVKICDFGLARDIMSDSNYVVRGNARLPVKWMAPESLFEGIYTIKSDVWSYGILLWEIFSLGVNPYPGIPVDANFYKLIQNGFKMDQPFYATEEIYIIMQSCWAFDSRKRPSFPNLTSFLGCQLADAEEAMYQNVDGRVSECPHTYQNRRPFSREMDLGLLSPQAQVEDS
Sequence of JAK3 (P52333 whole entry, species assumed): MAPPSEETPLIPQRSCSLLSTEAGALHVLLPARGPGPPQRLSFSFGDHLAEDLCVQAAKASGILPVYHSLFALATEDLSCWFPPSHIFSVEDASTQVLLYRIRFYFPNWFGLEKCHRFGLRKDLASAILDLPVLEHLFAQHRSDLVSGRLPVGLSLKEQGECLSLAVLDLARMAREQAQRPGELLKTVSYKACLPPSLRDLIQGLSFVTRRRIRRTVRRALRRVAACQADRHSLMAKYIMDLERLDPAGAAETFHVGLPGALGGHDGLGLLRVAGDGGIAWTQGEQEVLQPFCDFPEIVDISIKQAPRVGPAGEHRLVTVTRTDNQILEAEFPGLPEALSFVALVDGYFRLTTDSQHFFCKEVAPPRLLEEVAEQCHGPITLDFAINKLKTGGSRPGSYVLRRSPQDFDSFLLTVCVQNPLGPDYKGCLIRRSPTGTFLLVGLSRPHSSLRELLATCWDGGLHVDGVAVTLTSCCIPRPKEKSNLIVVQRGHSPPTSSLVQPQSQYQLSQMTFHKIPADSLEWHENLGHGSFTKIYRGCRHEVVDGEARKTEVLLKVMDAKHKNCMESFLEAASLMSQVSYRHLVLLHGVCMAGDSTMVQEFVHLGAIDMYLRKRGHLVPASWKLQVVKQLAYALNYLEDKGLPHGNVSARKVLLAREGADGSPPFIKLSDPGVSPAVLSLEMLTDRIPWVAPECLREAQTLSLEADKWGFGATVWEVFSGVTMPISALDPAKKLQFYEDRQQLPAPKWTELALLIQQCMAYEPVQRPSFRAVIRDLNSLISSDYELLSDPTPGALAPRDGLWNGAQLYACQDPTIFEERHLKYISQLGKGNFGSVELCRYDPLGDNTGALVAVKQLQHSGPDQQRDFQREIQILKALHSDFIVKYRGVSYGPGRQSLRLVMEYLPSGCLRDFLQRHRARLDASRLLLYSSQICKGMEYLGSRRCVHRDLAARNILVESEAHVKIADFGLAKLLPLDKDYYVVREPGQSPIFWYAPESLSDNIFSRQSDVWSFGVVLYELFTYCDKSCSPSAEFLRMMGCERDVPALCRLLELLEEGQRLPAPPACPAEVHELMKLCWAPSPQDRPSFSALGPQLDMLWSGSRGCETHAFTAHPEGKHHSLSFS
Sequence of BTK Kinase (Q06187 whole entry): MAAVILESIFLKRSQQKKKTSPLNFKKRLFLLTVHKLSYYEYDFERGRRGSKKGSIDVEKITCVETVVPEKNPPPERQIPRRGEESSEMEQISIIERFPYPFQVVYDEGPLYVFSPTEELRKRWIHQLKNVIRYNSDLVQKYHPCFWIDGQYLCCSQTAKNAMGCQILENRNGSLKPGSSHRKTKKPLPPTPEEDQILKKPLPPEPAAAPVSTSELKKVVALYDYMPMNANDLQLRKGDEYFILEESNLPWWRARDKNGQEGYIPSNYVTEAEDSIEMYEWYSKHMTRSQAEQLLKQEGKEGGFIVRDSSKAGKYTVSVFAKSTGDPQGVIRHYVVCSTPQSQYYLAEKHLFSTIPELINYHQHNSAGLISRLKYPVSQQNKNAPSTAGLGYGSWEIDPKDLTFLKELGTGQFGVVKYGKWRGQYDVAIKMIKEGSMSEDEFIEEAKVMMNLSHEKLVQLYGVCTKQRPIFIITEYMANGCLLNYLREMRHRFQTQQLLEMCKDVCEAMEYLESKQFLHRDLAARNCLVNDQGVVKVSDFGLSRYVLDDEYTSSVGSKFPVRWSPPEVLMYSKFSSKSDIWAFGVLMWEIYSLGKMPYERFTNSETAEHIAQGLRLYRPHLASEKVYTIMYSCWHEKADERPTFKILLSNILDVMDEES
Sequence of BLK (P51451 whole entry, species assumed): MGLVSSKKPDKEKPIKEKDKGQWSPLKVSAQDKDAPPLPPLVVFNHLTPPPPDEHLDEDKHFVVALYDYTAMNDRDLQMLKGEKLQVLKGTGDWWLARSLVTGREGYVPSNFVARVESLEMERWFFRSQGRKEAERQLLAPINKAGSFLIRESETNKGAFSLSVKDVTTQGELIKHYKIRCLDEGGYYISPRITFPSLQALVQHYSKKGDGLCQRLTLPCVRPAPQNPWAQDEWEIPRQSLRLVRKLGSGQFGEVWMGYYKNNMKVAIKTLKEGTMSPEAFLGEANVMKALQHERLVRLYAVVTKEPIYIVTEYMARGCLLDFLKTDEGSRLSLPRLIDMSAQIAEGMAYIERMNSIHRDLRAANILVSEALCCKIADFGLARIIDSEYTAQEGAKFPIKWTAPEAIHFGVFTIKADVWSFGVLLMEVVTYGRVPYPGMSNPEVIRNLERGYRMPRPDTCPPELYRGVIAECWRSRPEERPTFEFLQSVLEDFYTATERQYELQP

Regarding `C=CC(=O)N1CCC[C@@H](n2nc(-c3ccc(Oc4ccccc4)nc3)c3c(N)ncnc32)C1` [Compound 15a, (R)-1-(3-(4-amino-3-(6-phenoxypyridin-3-yl)-1H-pyrazolo[3,4-d]pyrimidin-1-yl)piperidin-1-yl) prop-2-en-1-one], the IC50 is 3.2 nM against BTK Kinase; above 1000 nM at ITK; 30 nM at BLK; above 1000 nM on CSK; above 1000 nM at JAK3; above 1000 nM at FLT3. Moreover, the IC50 in [3] came to 1.56 µM; in assay [4], 8.16 nM; in assay [5], 2.5 nM. Also, the “TGI*(14 days) (%) calculated on the basis of tumor volume” value in [1] is 65.01%. The “TGI**(14 days) (%) calculated on the basis of tumor weight” value in [1] was 61.00%. The “level of IL-1β in serum (in words)” value in assay [2] is reported as “significantly reduce”. In addition, the “IL-1β” value in assay [2] was found to be 18.72 ± 6.6 ng/L. For the same compound, the “inflammatory cell infiltration, synovial hyperplasia, inflammatory granulation tissue formation, necrotic tissue” value in assay [2] is “significantly improved”.

As for `C=CC(=O)N1CC[C@@H](n2nc(-c3ccc(Oc4ccccc4)nc3F)c3c(N)ncnc32)C1` [Compound 24a, (R)-1-(3-(4-amino-3-(2-fluoro-6-phenoxypyridin-3-yl)-1H-pyrazolo[3,4-d]pyrimidin-1-yl)pyrrolidin-1-yl)prop-2-en-1-one], the IC50 was 2.5 nM on BTK Kinase; above 1000 nM at ITK; 5.4 nM at BLK; above 1000 nM on CSK; above 1000 nM on JAK3; above 1000 nM on FLT3. The values for the IC50 in [3], in assay [4] and in assay [5] were 2.11 µM, 16.9 nM and 2.17 nM, respectively. Moreover, in assay [1], the “TGI*(14 days) (%) calculated on the basis of tumor volume” value is reported as 73.80%. For the same compound, the “TGI**(14 days) (%) calculated on the basis of tumor weight” value in assay [1] is given as 65.19%. Further, the “level of IL-1β in serum (in words)” value in [2] is on record as “significantly reduce”. In addition, the “IL-1β” value in assay [2] is reported as 19.32 ± 4.2 ng/L. The “inflammatory cell infiltration, synovial hyperplasia, inflammatory granulation tissue formation, necrotic tissue” value in assay [2] was “significantly improved”.
